System: HiNGT, EcNGT, ApNGT and ApNGT^Q469A
Type: biochemical

With WGNWS the “differential sequence preference in regard to N-glycosylation: which NGT modifies the sequence” value was “for EcNGT but not for HiNGT”.

Source: patent US11898187B2 (priority 2017, dated 2024)
